# Results: publication PMC6528170 (Nature, 2009)
# Like-named read-outs stand apart in the source and are kept apart here.
# T1: Get3 (S. cerevisiae) (Saccharomyces cerevisiae, UniProt Q12154)
# T1 sequence (Q12154 1-354): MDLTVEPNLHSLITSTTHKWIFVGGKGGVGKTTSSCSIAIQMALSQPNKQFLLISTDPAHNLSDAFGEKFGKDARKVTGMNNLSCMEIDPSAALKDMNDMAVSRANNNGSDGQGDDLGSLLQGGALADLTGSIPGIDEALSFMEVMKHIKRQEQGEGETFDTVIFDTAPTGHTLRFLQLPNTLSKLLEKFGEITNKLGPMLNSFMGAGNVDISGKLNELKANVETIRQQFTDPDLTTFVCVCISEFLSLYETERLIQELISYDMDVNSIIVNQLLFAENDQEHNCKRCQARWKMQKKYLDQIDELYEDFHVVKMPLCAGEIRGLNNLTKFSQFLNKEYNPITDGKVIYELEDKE
# Legend:
# [1] = target: T1, Get3 (S. cerevisiae); test: NADH-coupled microplate ATPase assay; type: biochemical; conditions: Tris pH 7.5, 5 mM MgCl2, 20 mM NaCl, 30 °C, 2 μM Get3, 0.02% n-dodecyl-β-D-maltopyranoside
# [2] = target: Get3 (S. cerevisiae) (Saccharomyces cerevisiae, UniProt Q12154, D57N); test: NADH-coupled microplate ATPase assay; type: biochemical; conditions: Tris pH 7.5, 5 mM MgCl2, 20 mM NaCl, 30 °C, 2 μM Get3, 0.02% n-dodecyl-β-D-maltopyranoside
# Chain of Get3 (S. cerevisiae) (Saccharomyces cerevisiae, UniProt Q12154, D57N) (Q12154 whole entry D57N): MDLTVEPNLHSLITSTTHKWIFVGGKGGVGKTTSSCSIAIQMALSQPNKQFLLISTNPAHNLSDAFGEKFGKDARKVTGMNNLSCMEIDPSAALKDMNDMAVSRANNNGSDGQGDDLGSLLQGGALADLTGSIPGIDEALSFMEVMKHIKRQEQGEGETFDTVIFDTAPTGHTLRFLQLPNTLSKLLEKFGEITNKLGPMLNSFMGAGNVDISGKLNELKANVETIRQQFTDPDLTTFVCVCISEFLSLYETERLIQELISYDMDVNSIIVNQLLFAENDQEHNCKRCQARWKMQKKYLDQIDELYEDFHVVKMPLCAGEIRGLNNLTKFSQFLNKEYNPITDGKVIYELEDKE
# [3] = target: the molecule itself; test: crystal structure
# [4] = target: the molecule itself; test: crystal structure; remark: listed apart in the source
molecule,measurement,setting,value
Nc1ncnc2c1ncn2[C@@H]1O[C@H](COP(=O)(O)OP(=O)(O)OP(=O)(O)O)[C@@H](O)[C@H]1O [ATP],"apparent Km,ATP",[1],"used to calculate Vmax and apparent Km,ATP values"
same,NADH-coupled microplate ATPase assay,[2],an Asp57Asn mutant is defective for ATP hydrolysis
"Schizosaccharomyces pombe Get3 (natural protein, S. pombe, UniProt Q9P7F8 1-329, looked up) MSFDPLPGTLENLLEQTSLKWIFVGGKGGVGKTTTSCSLAIQMSKVRSSVLLISTDPAHNLSDAFGTKFGKDARKVPGFDNLSAMEIDPNLSIQEMTEQADQQNPNNPLSGMMQDLAFTIPGIDEALAFAEILKQIKSMEFDCVIFDTAPTGHTLRFLNFPTVLEKALGKLGGLSSRFGPMINQMGSIMGVNANEQDLFGKMESMRANISEVNKQFKNPDLTTFVCVCISEFLSLYETERMIQELTSYEIDTHNIVVNQLLLDPNTTCPQCMARRKMQQKYLAQIEELYEDFHVVKVPQVPAEVRGTEALKSFSEMLVKPYVYPTSGKE",stoichiometry N,[3],2
"Saccharomyces cerevisiae Get3 (wild type) (natural protein, S. cerevisiae, UniProt Q12154 1-354, looked up) MDLTVEPNLHSLITSTTHKWIFVGGKGGVGKTTSSCSIAIQMALSQPNKQFLLISTDPAHNLSDAFGEKFGKDARKVTGMNNLSCMEIDPSAALKDMNDMAVSRANNNGSDGQGDDLGSLLQGGALADLTGSIPGIDEALSFMEVMKHIKRQEQGEGETFDTVIFDTAPTGHTLRFLQLPNTLSKLLEKFGEITNKLGPMLNSFMGAGNVDISGKLNELKANVETIRQQFTDPDLTTFVCVCISEFLSLYETERLIQELISYDMDVNSIIVNQLLFAENDQEHNCKRCQARWKMQKKYLDQIDELYEDFHVVKMPLCAGEIRGLNNLTKFSQFLNKEYNPITDGKVIYELEDKE",stoichiometry N,[4],2
